From patent US9226929B2, “Pharmaceutically active disubstituted triazine derivatives” (Bayer Intellectual Property GMBH, priority 2011, dated 2016)
pIC50, pKd: −log10 of the molar value.

Tests used:
CDK9/Cyclin T1 = target: T1, CDK9/Cyclin T1 (Homo sapiens, UniProt P50750); assay: LanthaScreen Eu Kinase Binding Assay, CDK9/Cyclin T1; details: tracer 236, read-out: CDK9/Cyclin T1 (activity range), Kd
T1 construct: His; purchased Invitrogen
In short: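 TR-FRET displacement of an Alexa Fluor 647 active-site tracer, detected with a Eu anti-GST antibody, over an 8-point 1:3 compound series. Tracer was set at its Kd (30 nM for CDK2/Cyclin A, CDK7 and CDK9/Cyclin T1; 35 nM for CDK9/Cyclin K). Read after 1 h at room temperature; Kd was fitted from sigmoidal curves.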

CDK2/CyclinA = target: T2, CDK2/CyclinA (Homo sapiens, UniProt P24941); assay: Lance Ultra KinaSelect Assay, CDK2; type: biochemical; details: ATP 3 μM; read-out: CDK2 LANCE assay (activity range), IC50
T2 construct: GST; purchased Proqinase
Description: (§1) 2. Measurement of half maximal inhibitory concentration to CDKs This protocol describes how the Lance Ultra KinaSelect Assay was performed to determine half maximal inhibitory concentration (1050) of compounds of general formula (I) and CDK/Cyclin complexes. The principle behind this enzymatic assay is based upon the phosphorylation of the ULight-Peptide Substrat. It is detected by using a specific
(§2) EU-labeled anti-phospho peptide antibody. The binding of the Eu-labeled anti-phospho peptide antibody to the phosphorylated ULight labeled peptide gives rise to a FRET-signal. Binding of an inhibitor to the kinase prevents phosphorylation of the ULight-MBP Substrat, resulting in a loss of FRET.
(§3) The compounds of general formula (I) summarized in Table 5 were diluted from a 10 mM DMSO stock solution 1:10 in a total volume of 15 μL DMSO. This compound predilution was then serial diluted 1:3 over 8 steps in DMSO and briefly spun down. Each compound solution was now diluted 1:20 in Enzymatic Buffer (HEPES: 50 mM, pH: 7.5; MgCl2: 10 mM; EGTA: 1 mM; DTT: 2 mM; Tween-20: 0.01%), mixed thoroughly and spun down. For every sample, 2 μL of the diluted compound were mixed with 6 μL CDK/Cyclin/Substrat solution and 2 μL ATP solution in a well of a small volume 384 well plate (Corning Incorporated, Corning, N.Y., USA; order no. 3673). The CDK/Cyclin was diluted to the appropriate concentration (see Table 3) and the ATP concentration was adjusted to its […] for the CDK/Cyclin, which was 3 μM for CDK2/Cyclin A, 20 μM for CDK1/Cyclin B1, 25 μM for CDK7/Cyclin H and CDK9/Cyclin T1, 55 μM for CDK6/Cyclin D3, 90 μM for CDK4/Cyclin D1 and 125 μM for CDK9/Cyclin K. For negative controls, in each well 2 μL of DMSO solution (1% final DMSO assay concentration) was mixed with 6 μL substrate solution (50 nM ULight MBP final assay concentration) and 2 μL ATP solution (appropriate final concentration see Table 3). For positive controls, in each well 2 μL of DMSO solution (1% final DMSO assay concentration) was mixed with 6 μL CDK/Cyclin/Substrat (appropriate final concentration see Table 3) and 2 μL Tracer ATP solution (appropriate final concentration see Table 3). Positive and negative controls were calculated from at least 8 different sample wells. The 384 well plates were mixed in a Teleshaker plate mixer (Beckman Coulter, Brea, Calif., USA) at 2000 rpm for 40 sec, and incubated for 1 h at room temperature. Before reading, 10 μL the detection buffer (Lance Detection Buffer 1×; EDTA: […]; Eu-Anti-P-MBP: see Table 3) was added. The FRET signal was measured at 340 nm excitation, 665 nm and 615 nm emission (for the kinase tracer and LanthaScreen Eu-AB, respectively) with an Envision spectrophotometer (Perkin Elmer, Waltham, Mass., USA) with 50 μs delay and 300 μs integration time. IC50 values were determined from the sigmoidal dose response curves with the software Quattro Workflow (Quattro GmbH, Munich, Germany).

CDK1/CyclinB1 = target: T3, CDK1/CyclinB1 (Homo sapiens, UniProt P06493); assay: Lance Ultra KinaSelect Assay, CDK1; type: biochemical; details: ATP 20 μM; read-out: CDK1 LANCE assay (activity range), IC50
T3 construct: purchased Carna
T3 sequence (P06493 whole entry): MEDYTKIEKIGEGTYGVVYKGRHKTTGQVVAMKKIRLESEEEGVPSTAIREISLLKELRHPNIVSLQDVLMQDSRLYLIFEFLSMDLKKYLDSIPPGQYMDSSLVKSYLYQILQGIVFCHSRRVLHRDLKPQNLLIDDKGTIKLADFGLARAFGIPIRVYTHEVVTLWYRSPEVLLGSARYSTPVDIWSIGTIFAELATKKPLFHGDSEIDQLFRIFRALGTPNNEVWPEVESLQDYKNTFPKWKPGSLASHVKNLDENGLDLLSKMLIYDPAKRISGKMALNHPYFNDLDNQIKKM
T3 sequence (P14635 whole entry partner): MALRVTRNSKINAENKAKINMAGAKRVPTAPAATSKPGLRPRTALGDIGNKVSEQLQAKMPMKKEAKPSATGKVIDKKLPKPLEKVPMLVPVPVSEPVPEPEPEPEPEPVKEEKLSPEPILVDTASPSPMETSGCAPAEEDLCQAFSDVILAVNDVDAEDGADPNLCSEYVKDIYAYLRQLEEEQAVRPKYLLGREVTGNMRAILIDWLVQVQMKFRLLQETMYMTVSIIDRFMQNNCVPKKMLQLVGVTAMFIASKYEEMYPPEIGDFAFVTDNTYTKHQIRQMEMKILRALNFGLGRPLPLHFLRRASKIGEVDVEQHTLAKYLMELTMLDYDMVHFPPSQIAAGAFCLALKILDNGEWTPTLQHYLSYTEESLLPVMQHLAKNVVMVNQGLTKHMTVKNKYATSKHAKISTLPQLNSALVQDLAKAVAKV
Description: as §1, §2, §3

CDK9 = target: T4, CDK9 (Homo sapiens, UniProt P50750); assay: Lance Ultra KinaSelect Assay, CDK9; type: biochemical; details: cyclin partner (T1 or K) not stated; read-out: CDK9 LANCE assay (activity range), IC50
T4 construct: purchased Invitrogen
T4 sequence (P50750 whole entry): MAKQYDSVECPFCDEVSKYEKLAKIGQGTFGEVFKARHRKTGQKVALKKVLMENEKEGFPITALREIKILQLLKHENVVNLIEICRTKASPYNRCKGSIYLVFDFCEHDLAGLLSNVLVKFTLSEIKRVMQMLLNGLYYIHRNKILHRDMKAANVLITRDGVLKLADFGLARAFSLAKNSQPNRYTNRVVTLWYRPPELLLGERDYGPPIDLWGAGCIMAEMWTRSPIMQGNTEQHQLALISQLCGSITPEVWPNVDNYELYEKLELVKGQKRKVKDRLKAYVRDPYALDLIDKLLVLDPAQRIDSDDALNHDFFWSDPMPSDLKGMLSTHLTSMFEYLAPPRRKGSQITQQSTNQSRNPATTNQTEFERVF
Description: as §1, §2, §3

T1 sequence (P50750 whole entry): as above
T1 sequence (O60563 whole entry partner): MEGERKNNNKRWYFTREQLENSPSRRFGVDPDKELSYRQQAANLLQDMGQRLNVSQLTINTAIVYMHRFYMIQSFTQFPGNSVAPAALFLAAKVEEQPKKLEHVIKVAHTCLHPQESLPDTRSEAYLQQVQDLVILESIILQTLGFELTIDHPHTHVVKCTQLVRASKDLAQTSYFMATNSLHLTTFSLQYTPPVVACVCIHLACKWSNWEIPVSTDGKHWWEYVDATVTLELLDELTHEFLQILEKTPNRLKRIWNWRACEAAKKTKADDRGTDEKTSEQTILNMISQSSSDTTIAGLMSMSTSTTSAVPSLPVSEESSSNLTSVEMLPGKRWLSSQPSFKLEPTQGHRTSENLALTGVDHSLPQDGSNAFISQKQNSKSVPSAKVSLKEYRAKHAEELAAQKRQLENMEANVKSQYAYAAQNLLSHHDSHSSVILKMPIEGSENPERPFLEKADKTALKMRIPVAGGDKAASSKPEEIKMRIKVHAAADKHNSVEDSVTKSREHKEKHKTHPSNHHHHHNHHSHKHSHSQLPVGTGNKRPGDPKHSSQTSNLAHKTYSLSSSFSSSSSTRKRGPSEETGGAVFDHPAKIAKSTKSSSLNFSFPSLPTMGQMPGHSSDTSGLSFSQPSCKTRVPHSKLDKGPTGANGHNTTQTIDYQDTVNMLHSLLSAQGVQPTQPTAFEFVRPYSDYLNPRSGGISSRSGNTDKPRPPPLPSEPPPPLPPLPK

NS(=O)(=O)Cc1cccc(Nc2ncnc(N3CCCC3c3ccccc3)n2)c1 (racemic) [Compound B33, rac-3-[(4-(2-Phenylpyrrolidin-1-yl)-1,3,5-triazin-2-yl)amino]-benzenemethanesulfonamide]
pKd (CDK9/Cyclin T1): > 7.00 | pIC50 (CDK2/CyclinA): < 5.00 | pIC50 (CDK1/CyclinB1): 5.00 to 6.00 | pIC50 (CDK9): 6.00 to 7.00

NS(=O)(=O)Cc1cccc(Nc2ncnc(N3CCCCC3)n2)c1 [Compound B1, 3-[(4-(Piperidin-1-yl)-1,3,5-triazin-2-yl)amino]benzenemethane sulfonamide]
pKd (CDK9/Cyclin T1): 6.00 to 7.00 | pIC50 (CDK2/CyclinA): < 5.00 | pIC50 (CDK1/CyclinB1): < 5.00 | pIC50 (CDK9): 5.00 to 6.00

COC[C@H]1CCCN1c1ncnc(Nc2cccc(CS(N)(=O)=O)c2)n1 [Compound B17, (R)-3-[(4-(2-(Methoxymethyl)pyrrolidin-1-yl)-1,3,5-triazin-2-yl)amino]benzenemethanesulfonamide]
pKd (CDK9/Cyclin T1): > 7.00 | pIC50 (CDK2/CyclinA): 5.00 to 6.00 | pIC50 (CDK1/CyclinB1): 5.00 to 6.00 | pIC50 (CDK9): 6.00 to 7.00

COC(=O)[C@H]1CCCN1c1ncnc(Nc2cccc(CS(N)(=O)=O)c2)n1 [Compound B21, (R)-Methyl 1-[4-((3-(Sulfamoylmethyl)phenyl)amino)-1,3,5-triazin-2-yl]pyrrolidine-2-carboxylate]
pKd (CDK9/Cyclin T1): > 7.00 | pIC50 (CDK9): 6.00 to 7.00

NS(=O)(=O)Cc1cccc(Nc2ncnc(N3CCc4ncccc4C3)n2)c1 [Compound B38, 3-[(4-(7,8-Dihydro-1,6-naphthyridin-6(5H)-yl)-1,3,5-triazin-2-yl)amino]-benzenemethanesulfonamide]
pKd (CDK9/Cyclin T1): > 7.00 | pIC50 (CDK2/CyclinA): 6.00 to 7.00 | pIC50 (CDK1/CyclinB1): 6.00 to 7.00 | pIC50 (CDK9): > 7.00

NS(=O)(=O)Cc1cccc(Nc2ncnc(N3CCc4nc[nH]c4C3)n2)c1 [Compound B44, 3-[(4-(6,7-Dihydro-3H-imidazo[4,5-c]pyridin-5(4H)-yl)-1,3,5-triazin-2-yl)amino]benzenemethanesulfonamide]
pKd (CDK9/Cyclin T1): > 7.00 | pIC50 (CDK9): > 7.00

NS(=O)(=O)Cc1cccc(Nc2ncnc(N3CCc4ncsc4C3)n2)c1 [Compound B45, 3-[(4-(6,7-Dihydrothiazolo[5,4-c]pyridin-5(4H)-yl)-1,3,5-triazin-2-yl)amino]benzenemethanesulfonamide]
pKd (CDK9/Cyclin T1): > 7.00 | pIC50 (CDK2/CyclinA): > 7.00 | pIC50 (CDK9): > 7.00

NS(=O)(=O)Cc1cccc(Nc2ncnc(N3CCCn4nccc43)n2)c1 [Compound B47, 3-[(4-(6,7-Dihydropyrazolo[1,5-a]pyrimidin-4(5H)-yl)-1,3,5-triazin-2-yl)amino]benzenemethanesulfonamide]
pKd (CDK9/Cyclin T1): > 7.00 | pIC50 (CDK2/CyclinA): > 7.00 | pIC50 (CDK1/CyclinB1): 6.00 to 7.00 | pIC50 (CDK9): > 7.00

NS(=O)(=O)Cc1cccc(Nc2ncnc(N3Cc4cn[nH]c4C3)n2)c1 [Compound B51, 3-[(4-(Pyrrolo[3,4-c]pyrazol-5(1H,4H,6H)-yl)-1,3,5-triazin-2-yl)amino]-benzenemethanesulfonamide]
pKd (CDK9/Cyclin T1): > 7.00 | pIC50 (CDK2/CyclinA): 6.00 to 7.00 | pIC50 (CDK1/CyclinB1): 5.00 to 6.00 | pIC50 (CDK9): > 7.00
